From article PMC10847579, “Recording ten-fold larger IKr conductances with automated patch clamping using equimolar Cs^+ solutions” (Frontiers in Physiology, 2024)

Assays:
[1] = target: T1, hERG channel (Homo sapiens, UniProt Q12809); test: Automated patch clamp (Nanion Patchliner) of hERG current in CHO-hERG cells with equimolar Cs+ solutions; type: cell-based
T1 construct: host or cells: CHO cre/lox hERG
Experimental: (§1) A cell passage was performed twice a week and kept under 20 passages for optimal cell quality. […] Thereafter, the cells were resuspended in 1.7 mL external K^+ solution.
(§2) After sample preparation, experiments on CHO cells were performed at 22°C on the Nanion® Patchliner system (Nanion Technologies, Munich, Germany) with a EPC-10 Quadro Amplifier (HEKA, Reutlingen, Germany) controlled by Patchmaster 2.90.5. Recordings were performed using membrane capacitance and series resistance compensation (70%). The chip (NPC-16 medium resistance, Nanion Technologies) was filled with either the K^+ or Cs^+ internal and external solution with a resistance between 2 and 4 MOhm. Thereafter, the cells were added to the chip. After the capture of a cell, the seal enhancer solution was added, obtaining a Rseal of at least 200 MOhm. Next, the chip was flushed with an external solution. During the experiment, four cells were measured simultaneously in separate chambers of the chip.
(§3) For all experiments, the drugs were incubated for 60 s before measuring and an activation pulse of +20 mV and −80 mV both for 500 m was given to open the channel and achieve the steady-state ion channel–drug interaction.
For Cs^+-based experiments, the cells were depolarized from a holding potential of −80 mV in 10-mV increments between −70 mV and +40 mV for 3 s. Thereafter, the cell was clamped back to −80 mV for 2 s, followed by a hyperpolarization step to −100 mV for 50 ms before returning to −80 mV. In K^+-based experiments, the cells were clamped at a holding potential of −80 mV before a hyperpolarizing step to −120 mV for 10 ms and returned to −80 mV for 50 ms before cells were depolarized from −60 mV to 60 mV in 10-mV increments for 1 s. […]
For all measured currents, the current densities (pA/pF) were determined by normalizing for the membrane capacitance. The current densities were converted to conductance densities (pS/pF) using reversal potentials calculated using the Nernst equation for the solution and temperature used. […]
All averages are expressed as mean ± SEM for the (maximal) conductance values and IC50 values. […]

[2] = target: T1, hERG channel; test: Automated patch clamp (Nanion Patchliner) of hERG current in CHO-hERG cells with K+ solutions; type: cell-based
Experimental: as §1, §2, §3
For Cs^+-based experiments, the cells were depolarized from a holding potential of −80 mV in 10-mV increments between −70 mV and +40 mV for 3 s. Thereafter, the cell was clamped back to −80 mV for 2 s, followed by a hyperpolarization step to −100 mV for 50 ms before returning to −80 mV. In K^+-based experiments, the cells were clamped at a holding potential of −80 mV before a hyperpolarizing step to −120 mV for 10 ms and returned to −80 mV for 50 ms before cells were depolarized from −60 mV to 60 mV in 10-mV increments for 1 s. Thereafter, the cells were clamped back to −50 mV for 500 ms and finally returned to −80 mV. The interval between sweeps was 10 s for both protocols.
For the stock solutions, the drugs were dissolved in ddH2O and for the working solution diluted in either the K^+ or Cs^+ external solution. The different concentrations per compound were sequentially tested on the same cell.
For all measured currents, the current densities (pA/pF) were determined by normalizing for the membrane capacitance. The current densities were converted to conductance densities (pS/pF) using reversal potentials calculated using the Nernst equation for the solution and temperature used.
Dose–response curves were made with the tail current values at 40 mV, which were the largest current densities.
All averages are expressed as mean ± SEM for the (maximal) conductance values and IC50 values. To determine the amount of block, a two-way ANOVA with Dunnett’s test was performed with the maximal conductance values. […]

T1 sequence (Q12809 whole entry): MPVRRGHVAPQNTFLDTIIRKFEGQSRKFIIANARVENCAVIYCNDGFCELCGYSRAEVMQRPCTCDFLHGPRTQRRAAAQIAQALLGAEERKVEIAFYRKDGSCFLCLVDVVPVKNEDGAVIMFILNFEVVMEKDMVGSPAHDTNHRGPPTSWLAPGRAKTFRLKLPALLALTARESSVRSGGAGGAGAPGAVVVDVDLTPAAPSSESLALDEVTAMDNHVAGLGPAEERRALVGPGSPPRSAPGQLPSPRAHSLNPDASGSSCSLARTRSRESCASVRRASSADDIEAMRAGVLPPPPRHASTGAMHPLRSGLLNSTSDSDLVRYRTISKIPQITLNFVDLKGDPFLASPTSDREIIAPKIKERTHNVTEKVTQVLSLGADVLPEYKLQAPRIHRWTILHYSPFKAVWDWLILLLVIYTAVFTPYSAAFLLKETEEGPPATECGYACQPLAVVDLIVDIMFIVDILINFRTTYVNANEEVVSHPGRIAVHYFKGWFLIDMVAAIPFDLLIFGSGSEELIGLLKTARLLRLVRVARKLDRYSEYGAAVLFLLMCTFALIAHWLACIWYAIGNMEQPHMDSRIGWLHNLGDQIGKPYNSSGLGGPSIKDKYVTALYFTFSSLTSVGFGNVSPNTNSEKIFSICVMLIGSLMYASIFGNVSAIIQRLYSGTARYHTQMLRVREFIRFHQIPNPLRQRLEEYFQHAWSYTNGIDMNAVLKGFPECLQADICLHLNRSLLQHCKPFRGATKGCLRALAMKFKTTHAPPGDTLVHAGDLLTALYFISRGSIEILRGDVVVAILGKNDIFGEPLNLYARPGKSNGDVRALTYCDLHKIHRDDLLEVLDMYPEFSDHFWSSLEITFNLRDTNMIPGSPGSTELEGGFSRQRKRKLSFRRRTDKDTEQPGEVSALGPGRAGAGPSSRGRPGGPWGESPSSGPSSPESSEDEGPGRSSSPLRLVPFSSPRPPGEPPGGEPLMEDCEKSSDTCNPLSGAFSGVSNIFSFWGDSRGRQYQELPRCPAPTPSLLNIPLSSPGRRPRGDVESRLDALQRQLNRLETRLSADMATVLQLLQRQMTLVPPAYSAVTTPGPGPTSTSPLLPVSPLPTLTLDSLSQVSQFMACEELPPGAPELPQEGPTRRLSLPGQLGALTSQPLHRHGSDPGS

## CNCCCN1c2ccccc2CCc2ccccc21 [Desipramine]
[1]; 100 µM (highest)
  effect on Cs+ step conductance: slightly decreased
  effect on Cs+ tail conductance: strong decrease but not a complete block
[1]; tail current at +40 mV
  Hill coef.: −1.4
[2]; K+ solutions, 1 µM
  effect on K+ step conductance: almost completely inhibited
[2]; K+ solutions, 100 and 1,000 µM
  effect on K+ tail conductance: completely blocked
[2]; K+ solutions, tail current at +40 mV
  Hill coef.: −1.4
[2]; comparison of the drugs, Figure 1 (K+ and Cs+ solutions)
  strength of hERG current inhibition: modest inhibition
